# Data: US9518018B2, “3-alkoxy, thioalkyl and amino-4-amino-6-(substituted)picolinates and their use as herbicides” (Dow AgroSciences LLC, priority 2011, dated 2016)
# System: desired test plant species
# Assay: Foliar-applied postemergence herbicidal activity in direct seeded rice (Table 6)
# Format: in vivo
# Conditions: 21 DAA
# Text: Seeds or nutlets of the desired test plant species were planted in a soil matrix prepared by mixing a loam soil (43 percent silt, 19 percent clay, and 38 percent sand, with a pH of about 8.1 and an organic matter content of about 1.5 percent) and river sand in an 80 to 20 ratio. The soil matrix was contained in plastic pots with a surface area of 139.7 cm^2. When required to ensure good germination and healthy plants, a fungicide treatment and/or other chemical or physical treatment was applied. The plants were grown for 10-17 d in a greenhouse with an approximate 14-h photoperiod which was maintained at about 29° C. during the day and 26° C. during the night. Nutrients and water were added on a regular basis and supplemental lighting was provided with overhead metal halide 1000-Watt lamps as necessary. The plants were employed for testing when they reached the second or third true leaf stage. Treatments consisted of compounds 45, 34, and 66. Weighed amounts of technical compounds were placed in individual 25 mL glass vials and dissolved in 8 mL of 97:3 v/v acetone-DMSO to obtain stock solutions. […] The spray application solutions were prepared by removing 4 mL of the stock solution and diluting with 4 mL of 97:3 v/v acetone-DMSO and continued serial dilution to obtain 1⁄2×, 1⁄4×, 1⁄8×, and 1/16× rates of the high rate. Spray solutions were diluted to the appropriate final concentrations with the addition of 8 mL of an aqueous mixture of 1.875% (v/v) Agri-dex crop oil concentrate. The final 12-mL spray solutions each contained 1.25% (v/v) Agri-dex crop oil concentrate, 32.3% acetone, and 1.0% DMSO. Compound requirements are based upon a 12 mL application volume at a rate of 187 L/ha. Spray solutions were applied to the plant material with an overhead Mandel track sprayer equipped with […] nozzles calibrated to deliver 187 L/ha over an application area of 0.503 square meters (m^2) at a spray height of 18 inches ([…]) above average plant canopy height. Control plants were sprayed in the same manner with the solvent blank. The treated plants and control plants were placed in a greenhouse as described above and watered by sub-irrigation to prevent wash-off of the test compounds. After approximately 3 weeks, the condition of the test plants, compared with that of the untreated plants, was determined visually and scored on a scale of 0 to 100 percent where 0 corresponds to no injury and 100 corresponds to complete kill. By applying the well-accepted probit analysis as described by J. Berkson in Journal of the […], 48, 565 (1953) and by D. Finney in “Probit Analysis” Cambridge University Press (1952) or by plotting the mean data and fitting a logarithmic curve to the portion of the data where there was a dose response using Microsoft Excel®, the above data can be used to calculate GR50 and GR90 values, which are defined as growth reduction factors that correspond to the effective dose of herbicide required to kill or control 50 percent or 90 percent, respectively, of a target plant.
structure (smiles),measurement,setting,value
"COc1c(C(=O)OCc2ccccc2)nc(-c2ccc(Cl)c(OC)c2F)c(F)c1N [Compound 66, benzyl 4-amino-6-(4-chloro-2-fluoro-3-methoxyphenyl)-5-fluoro-3-methoxypicolinate]",Mean Visual Injury (%)-21 Days After Application AESSE,"AESSE (Aeschynomene sensitiva, sensitive jointvetch), 4.38 g ae/ha",100%
same,Mean Visual Injury (%)-21 Days After Application AESSE,"AESSE (Aeschynomene sensitiva, sensitive jointvetch), 8.75 g ae/ha",100%
same,Mean Visual Injury (%)-21 Days After Application AESSE,"AESSE (Aeschynomene sensitiva, sensitive jointvetch), 17.5 g ae/ha",100%
same,Mean Visual Injury (%)-21 Days After Application AESSE,"AESSE (Aeschynomene sensitiva, sensitive jointvetch), 35 g ae/ha",100%
same,Mean Visual Injury (%)-21 Days After Application AESSE,"AESSE (Aeschynomene sensitiva, sensitive jointvetch), 70 g ae/ha",100%
same,GR50 AESSE,"AESSE (Aeschynomene sensitiva, sensitive jointvetch), dose to kill or control 50 percent",<4.38 g ae/ha
same,GR90 AESSE,"AESSE (Aeschynomene sensitiva, sensitive jointvetch), dose to kill or control 90 percent",<4.38 g ae/ha
same,Mean Visual Injury (%)-21 Days After Application BRAPP,"BRAPP (Brachiaria platyphylla, broadleaf signalgrass), 2.19 g ae/ha",53%
same,Mean Visual Injury (%)-21 Days After Application BRAPP,"BRAPP (Brachiaria platyphylla, broadleaf signalgrass), 4.38 g ae/ha",72%
same,Mean Visual Injury (%)-21 Days After Application BRAPP,"BRAPP (Brachiaria platyphylla, broadleaf signalgrass), 8.75 g ae/ha",83%
same,Mean Visual Injury (%)-21 Days After Application BRAPP,"BRAPP (Brachiaria platyphylla, broadleaf signalgrass), 17.5 g ae/ha",90%
same,Mean Visual Injury (%)-21 Days After Application BRAPP,"BRAPP (Brachiaria platyphylla, broadleaf signalgrass), 35 g ae/ha",87%
same,Mean Visual Injury (%)-21 Days After Application BRAPP,"BRAPP (Brachiaria platyphylla, broadleaf signalgrass), 70 g ae/ha",93%
same,GR50 BRAPP,"BRAPP (Brachiaria platyphylla, broadleaf signalgrass), dose to kill or control 50 percent",<2.19 g ae/ha
same,GR90 BRAPP,"BRAPP (Brachiaria platyphylla, broadleaf signalgrass), dose to kill or control 90 percent",34.4 g ae/ha
same,Mean Visual Injury (%)-21 Days After Application CYPDI,"CYPDI (Cyperus difformis, small-flower flatsedge), 2.19 g ae/ha",70%
same,Mean Visual Injury (%)-21 Days After Application CYPDI,"CYPDI (Cyperus difformis, small-flower flatsedge), 4.38 g ae/ha",91%
same,Mean Visual Injury (%)-21 Days After Application CYPDI,"CYPDI (Cyperus difformis, small-flower flatsedge), 8.75 g ae/ha",96%
same,Mean Visual Injury (%)-21 Days After Application CYPDI,"CYPDI (Cyperus difformis, small-flower flatsedge), 17.5 g ae/ha",100%
same,Mean Visual Injury (%)-21 Days After Application CYPDI,"CYPDI (Cyperus difformis, small-flower flatsedge), 35 g ae/ha",99%
same,Mean Visual Injury (%)-21 Days After Application CYPDI,"CYPDI (Cyperus difformis, small-flower flatsedge), 70 g ae/ha",97%
same,GR50 CYPDI,"CYPDI (Cyperus difformis, small-flower flatsedge), dose to kill or control 50 percent",<2.19 g ae/ha
same,GR90 CYPDI,"CYPDI (Cyperus difformis, small-flower flatsedge), dose to kill or control 90 percent",6.6 g ae/ha
same,Mean Visual Injury (%)-21 Days After Application CYPES,"CYPES (Cyperus esculentus, yellow nutsedge), 2.19 g ae/ha",60%
same,Mean Visual Injury (%)-21 Days After Application CYPES,"CYPES (Cyperus esculentus, yellow nutsedge), 4.38 g ae/ha",67%
same,Mean Visual Injury (%)-21 Days After Application CYPES,"CYPES (Cyperus esculentus, yellow nutsedge), 8.75 g ae/ha",93%
same,Mean Visual Injury (%)-21 Days After Application CYPES,"CYPES (Cyperus esculentus, yellow nutsedge), 35 g ae/ha",94%
same,Mean Visual Injury (%)-21 Days After Application CYPES,"CYPES (Cyperus esculentus, yellow nutsedge), 70 g ae/ha",95%
same,GR50 CYPES,"CYPES (Cyperus esculentus, yellow nutsedge), dose to kill or control 50 percent",<2.19 g ae/ha
same,GR90 CYPES,"CYPES (Cyperus esculentus, yellow nutsedge), dose to kill or control 90 percent",13.1 g ae/ha
same,Mean Visual Injury (%)-21 Days After Application CYPIR,"CYPIR (Cyperus iria, rice flatsedge), 2.19 g ae/ha",43%
same,Mean Visual Injury (%)-21 Days After Application CYPIR,"CYPIR (Cyperus iria, rice flatsedge), 4.38 g ae/ha",81%
same,Mean Visual Injury (%)-21 Days After Application CYPIR,"CYPIR (Cyperus iria, rice flatsedge), 8.75 g ae/ha",99%
same,Mean Visual Injury (%)-21 Days After Application CYPIR,"CYPIR (Cyperus iria, rice flatsedge), 17.5 g ae/ha",100%
same,Mean Visual Injury (%)-21 Days After Application CYPIR,"CYPIR (Cyperus iria, rice flatsedge), 35 g ae/ha",100%
same,Mean Visual Injury (%)-21 Days After Application CYPIR,"CYPIR (Cyperus iria, rice flatsedge), 70 g ae/ha",99%
same,GR50 CYPIR,"CYPIR (Cyperus iria, rice flatsedge), dose to kill or control 50 percent",2.4 g ae/ha
same,GR90 CYPIR,"CYPIR (Cyperus iria, rice flatsedge), dose to kill or control 90 percent",6.4 g ae/ha
same,Mean Visual Injury (%)-21 Days After Application ECHCG,"ECHCG (Echinochloa crus-galli, barnyardgrass), 2.19 g ae/ha",78%
same,Mean Visual Injury (%)-21 Days After Application ECHCG,"ECHCG (Echinochloa crus-galli, barnyardgrass), 4.38 g ae/ha",86%
same,Mean Visual Injury (%)-21 Days After Application ECHCG,"ECHCG (Echinochloa crus-galli, barnyardgrass), 8.75 g ae/ha",95%
same,Mean Visual Injury (%)-21 Days After Application ECHCG,"ECHCG (Echinochloa crus-galli, barnyardgrass), 17.5 g ae/ha",96%
same,Mean Visual Injury (%)-21 Days After Application ECHCG,"ECHCG (Echinochloa crus-galli, barnyardgrass), 35 g ae/ha",97%
same,Mean Visual Injury (%)-21 Days After Application ECHCG,"ECHCG (Echinochloa crus-galli, barnyardgrass), 70 g ae/ha",95%
same,GR50 ECHCG,"ECHCG (Echinochloa crus-galli, barnyardgrass), dose to kill or control 50 percent",<42.19 g ae/ha
same,GR90 ECHCG,"ECHCG (Echinochloa crus-galli, barnyardgrass), dose to kill or control 90 percent",8.3 g ae/ha
same,Mean Visual Injury (%)-21 Days After Application ECHCO,"ECHCO (Echinochloa colonum, junglerice), 2.19 g ae/ha",62%
